Non-standard residues stand in square brackets, D forms with d. No end group written: not given here.
What was measured:
[1] = system: mutant huntingtin protein aggregates (GFP-mHttQ74); assay: Western blot of mutant huntingtin protein aggregates in transfected HEK293T cells treated with bafilomycin; assay type: cell-based; conditions: 100 nM bafilomycin alone vs control
Experimental: FIG. 5 is the results of a Western blot analysis of mutant huntingtin protein expression levels of protein samples obtained 18 h after treatment of HEK293T cells transfected to express mutant huntingtin protein with either 100 nM bafilomycin alone or in combination with 30 μM of some peptides according to one embodiment of the present invention, to investigate the degradation of mutant huntingtin protein aggregates by treatment with some peptides (ZC303, ZC304, ZC309, ZC311) according to one embodiment of the present invention.
(§1) The present inventors conducted an Western blot analysis to investigate whether some of the peptides (ZC303, ZC304, ZC309, ZC311) comprising the amino acid sequences designated as SEQ ID NO: 1 to 15 could resolve SOD1 aggregates that formed after transient transfection of SOD1 protein into HEK293T cell lines. Specifically, the present inventors transiently transfected EGFP-SOD1 G93A DNA into the HEK293T cell line using Lipofectamine 2000. After transfection, the cell lines were incubated in a cell incubator at 37° C., 5% CO2 for 30 h and the culture medium was replaced with Minimum Essential Medium (MEM, Gibco, USA). After a 30 min pre-treatment with 100 nM bafilomycin, 30 μM of peptide was added and incubated for 18 h of post-treatment. […] The obtained cell lysate was subjected to protein quantification using BCA protein assay kit (Pierce Biotechnology, USA). […]

[2] = system: α-synuclein protein aggregates (EGFP-a-synuclein A53T); assay: Western blot of α-synuclein protein aggregates in transfected HEK293T cells treated with bafilomycin; assay type: cell-based; conditions: 100 nM bafilomycin alone vs control
Experimental: FIG. 4A is the results of a western blot analysis of a-synuclein expression levels of protein samples obtained 18 h after treatment of HEK293T cells transfected to express a-synuclein protein with either 100 nM bafilomycin alone or in combination with 30 μM of some peptides according to one embodiment of the present invention, to investigate the degradation of a-synuclein protein aggregates by treatment with some peptides (ZC303, ZC304, ZC309, ZC311) according to one embodiment of the present invention.
as §1

[3] = system: mutant tau protein aggregates (EGFP-Tau P301L); assay: Western blot of mutant tau protein aggregates in transfected HEK293T cells treated with bafilomycin; assay type: cell-based; conditions: 100 nM bafilomycin alone vs controls
[4] = system: H4 cell lines expressing GFP-tagged LC3 (GL-H4); assay: Autophagic flow blocked by Bafilomycin A-1: LC3-GFP puncta by fluorescence microscopy; assay type: cell-based; conditions: 100 nM bafilomycin alone, GL-H4 cells
Experimental: FIGS. 1A and 1B are a series of fluorescence micrographs showing that autophagic flow blocked by Bafilomycin A-1 is restored by the peptides according to one embodiment of the present invention, wherein an H4 cell line (GL-H4) stably overexpressing GFP-LC3 protein was treated with various peptides according to one embodiment of the present invention at a concentration of 20 μM in combination with Bafilomycin, whose LC3-GFP spots were photographed after 12 hours. FIGS. 1C and 1D are graphs showing quantification of the fluorescence intensity of LC3-GFP spots 12 hours after the treatment of the GL-H4 cell line with the peptides according to one embodiment of the present invention in combination with bafilomycin at a concentration of 20 μM. […]
To investigate the effect of the peptides comprising the amino acid sequences designated as SEQ ID NOs: 1 to 15 on autophagic flow, the present inventors treated H4 cell lines expressing GFP-tagged LC3 (GL-H4) with MEM and then used the above peptides (20 μM) and the autophagy inhibitor Bafilomycin A-1, Baf A1, 100 nM) to inhibit autophagy. Later, the effect of the peptides according to one embodiment of the present invention was investigated by fluorescence microscopy analysis. […]

[5] = system: SOD1 protein aggregates (EGFP-SOD1 G93A); assay: Western blot of SOD1 protein aggregates in transfected HEK293T cells treated with bafilomycin; assay type: cell-based; conditions: 100 nM bafilomycin alone vs control
Experimental: FIG. 2A is the results of a western blot analysis of SOD1 protein expression levels of protein samples obtained 18 h after treatment of HEK293T cells transfected to express SOD1 with either 100 nM bafilomycin alone or in combination with 30 μM of some peptides according to one embodiment of the present invention, to investigate the degradation of SOD1 protein aggregates by treatment with some peptides (ZC303, ZC304, ZC309, ZC311) according to one embodiment of the present invention. FIG. 2B is a graph showing the results of quantification of the relative expression. In FIG. 2B, * indicates a significant difference from the treatment with bafilomycin alone (* p<0.05).
The present inventors conducted an Western blot analysis to investigate whether some of the peptides (ZC303, ZC304, ZC309, ZC311) comprising the amino acid sequences designated as SEQ ID NO: 1 to 15 could resolve SOD1 aggregates that formed after transient transfection of SOD1 protein into HEK293T cell lines. Specifically, the present inventors transiently transfected EGFP-SOD1 G93A DNA into the HEK293T cell line using Lipofectamine 2000. […] The obtained cell lysate was subjected to protein quantification using BCA protein assay kit (Pierce Biotechnology, USA). […]

[6] = system: amyotrophic lateral sclerosis model animal (G93A-SOD1); assay: Rotarod test in ALS model animals; assay type: in vivo; conditions: G93A-SOD1 mice, 40 mg/kg SC five days per week from age 112 to 200 days, 15 rpm, 300 seconds
Experimental: (§2) To determine whether the peptide according to one embodiment of the present invention has therapeutic effects on amyotrophic lateral sclerosis (ALS) in vivo, the present inventors administered the peptide according to one embodiment of the present invention (ZC311) to an amyotrophic lateral sclerosis model animal (G93A-SOD1) at 40 mg/kg by subcutaneous (SC) injection repeatedly five days per week (Monday through Friday) from the age of 112 days to 200 days.
The animals were then subjected to a rotarod test twice a week at intervals of up to 3-4 days to evaluate their motor function. The rotarod test was performed using a rotarod treadmill (Cat. No. DJ-345, Dae Jong, Seoul, Korea) to evaluate impaired coordination, the main symptom of basal ganglia lesion disease, by measuring the time for the subject animals (n=11, 8, and 10) to fall off the rod during three repetitions of 300 seconds at a constant speed of 15 rpm. 300 seconds was set to be a perfect score, and the highest score was used.

[7] = system: P-Tau S214, P-Tau T205, unphosphorylated tau, p62, LC3, β-amyloid (APP); assay: Western blot of aggregate-forming proteins in cerebral cortex and hippocampus of Alzheimer's model animals; assay type: in vivo; conditions: 5XFAD mice, 20 mg/kg IP, 25 weeks
Description: Based on the results of Experimental example 7-2 above, the present inventors investigated the expression of pathogenic aggregate-forming proteins such as tau protein, p62, and LC3 in brain tissue other than β-amyloid by Western blot analysis.
Specifically, cortical and hippocampal tissues were obtained from experimental animals sacrificed after experiments, and the tissues were lysed and subjected to Western blot analysis in the same manner as Experimental example 3, using antibodies that specifically bind to phosphorylated tau S214 (P-Tau S214), phosphorylated tau T205 (P-Tau T205), unphosphorylated tau, p62, LC3, and β-amyloid (APP), respectively.

[8] = system: amyotrophic lateral sclerosis model animal (G93A-SOD1); assay: Survival rate of ALS model animals; assay type: in vivo; conditions: G93A-SOD1 mice, 40 mg/kg SC five days per week from age 112 days; untreated model 162 days
Experimental: as §2
In contrast, ALS model mice treated with the peptide according to one embodiment of the present invention began to die at a similar time to the control group, but the time to death was delayed (50% survival 183 days).

β-amyloid aggregates = assay: Thioflavin S and Congo red staining of β-amyloid plaques in brain sections of Alzheimer's model animals; assay type: in vivo; conditions: 5XFAD mice, cortex and hippocampus, 20 mg/kg IP, 25 weeks, vs model animals given PBS alone
Description: To determine whether the peptides according to one embodiment of the present invention could inhibit the accumulation of β-amyloid aggregates in the brain as a pathologic phenomenon of Alzheimer's disease, even under realistic in vivo conditions as shown by the results of Experiments 4 and 5 above, brain tissue sections obtained from experimental animals sacrificed after the peptide administration for 25 weeks were stained with thioflavin S and Congo red that have selective affinity for β-amyloid plaques.
Specifically, for thioflavin S staining, the brain of a dementia model mouse was harvested and freeze-dried in O.C.T compound (Sakura finetec, USA), and brain sections were obtained by coronal sectioning and mounted on glass slides coated with 0.1% poly-L-lysine. The obtained brain sections were washed in 70% ethanol for 1 min, then in 80% ethanol for 1 min again, and stained in 1% thiflavin S solution (MilliporeSigma, USA) for 15 min. […] Finally, the β-amyloid senile spots were observed through fluorescence microscopy.
Congo red staining to identify amyloid was performed as follows. […] The amyloid senile spots were observed under a fluorescence microscope, and the number of stained senile spots and amyloid per brain section was counted and quantified with a statistical program (Graph prism).

[9] = Body weight change in ALS model animals; assay type: in vivo; conditions: G93A-SOD1 mice, 40 mg/kg SC five days per week from age 112 to 200 days
Experimental: as §2
The present inventors measured changes in body weight over time during the behavioral analysis of Experimental example 8-1 above.

Row | Compound | mutant huntingtin protein aggregates [1] | α-synuclein protein aggregates [2] | mutant tau protein aggregates [3] | number and size of LC3 spots [4] | SOD1 protein aggregates [5] | development of ataxia (rotarod) [6] | expression of aggregate-forming proteins in the cerebral cortex [7] | expression of aggregate-forming proteins in the hippocampus [7] | 50% survival [8] [days] | accumulation of β-amyloid aggregates (plaques, thioflavin S and Congo red) (β-amyloid aggregates) | progressive body weight loss over time [9]
1 | CO/C1=C\C(C)=C\[C@@H](C)[C@@H](O)[C@@H](C)C/C(C)=C/C=C/[C@H](OC)[C@@H]([C@@H](C)[C@@H](O)[C@H](C)[C@@]2(O)C[C@@H](O)[C@H](C)[C@@H](C(C)C)O2)OC1=O [bafilomycin, Bafilomycin A-1] | increased | increased | increased | significantly increased | increased | – | – | – | – | – | –
2 | ZC311 ([dH]G[dV][dS]GHGQ[dH]G[dV][dH]G; not fully specified (residues 6, 8)) | – | – | – | – | – | delayed | significantly lower | significantly lower | 183 | significantly inhibited | not altered

Source: US20250326793A1, “Novel Peptide and Use Thereof” (Zincure Corp., priority 2022, published 2025)
